# Measured values reported in patent publication US11925633B2, “Drug for preventing and/or treating dementia” (NATIONAL CEREBRAL AND CARDIOVASCULAR CENTER, priority 2016, dated 2024).
# Read-outs that look alike come from different tables or passages of the source.
# Assays:
# [1] = Blood concentration after administration of the feed containing cilostazol and taxifolin
# Protocol: (§1) In the “APP-SwDI transgenic mice administrated with a feed containing cilostazol and taxifolin (n=3)”, as mentioned above, the blood concentration of this mouse was measured after administration of the feed containing cilostazol and taxifolin.
# APP-SwDI transgenic mice [2] = assay: Immunohistochemistry for Aβ deposition on the cerebral blood vessel wall (hippocampus region); type: in vivo, mouse; conditions: 8-month-old mice, drug-containing feed from 4-week-old to 8-month-old; compared to APP-SwDI mice on normal feed
# Protocol: The cilostazol-containing feed, the taxifolin-containing feed, and the feed containing cilostazol and taxifolin were administered from 4-week-old to 8-month-old. The concentration of cilostazol in the cilostazol-containing feed was 0.3 wt %, and the concentration of taxifolin in the taxifolin-containing feed was 3 wt %. The concentration of cilostazol and the concentration of taxifolin in the feed containing cilostazol and taxifolin were respectively 0.3 wt % and 3 wt %. All the APP-SwDI transgenic mice used were homozygous male mice. The 4-week-old APP-SwDI transgenic mice are considered to be in the initial stage of accumulation of Aβ in the brain blood vessel, i.e., the initial stage of cerebral amyloid angiopathy, and neuronal loss is considered to be not progressing much in this stage. The brain of an 8-month-old APP-SwDI transgenic mice was perfusion fixed using 4% para-formaldehyde, the removed brain was dehydration-treated for a whole day. A paraffin block of the fixed brain tissue was prepared, and the paraffin block was sliced in 6 microns by microtome. […] The hippocampus region was traced in a section which was cut 1 mm outside the midline, and the percentage of the Aβ accumulation area in the region of interest was measured by using image analysis software ImageJ (National Institutes of Health. USA). […]
# APP-SwDI transgenic mice [3] = assay: Water maze test (Morris water maze, with probe test); type: in vivo, mouse; conditions: 8-month-old mice; for residence time in Zone-1 in the probe test (visuospatial memory): fifth day, platform removed, 60 seconds; for swimming time to reach the platform (visuospatial memory): first day to fourth day, 4 trials per day
# Protocol: The cilostazol-containing feed, the taxifolin-containing feed, and the feed containing cilostazol and taxifolin were administered from 4-week-old to 8-month-old. The concentration of cilostazol in the cilostazol-containing feed was 0.3 wt %, and the concentration of taxifolin in the taxifolin-containing feed was 3 wt %. The concentration of cilostazol and the concentration of taxifolin in the feed containing cilostazol and taxifolin were respectively 0.3 wt % and 3 wt %. All the APP-SwDI transgenic mice used were homozygous male mice. The water maze test is a test for evaluating the visuospatial cognitive ability of mouse by utilizing the habit of avoiding water and escaping therefrom. The water maze used in this experiment was Morris water maze manufactured by Brain Science Idea, having a circular pool of a water tank entirely painted black with inner diameter 120 cm, wall height 30 cm. One transparent acrylic circular platform for escape with diameter 10 cm, height 10 cm was set at 30 cm from the center of the pool and 30 cm from the periphery. Clues such as poster, photograph and the like were arranged on the wall so that the mice could memorize various spatial arrangements in the surroundings, and the locations of these clues were always unchanged during the experiment. The pool was filled with water to a depth of 11 cm, and a platform was installed at about 1 cm below the water surface as in FIG. 3(A). In all tests, Zone-2 in FIG. 3(B) was set as a start position. Zone-1 to Zone-4 show quadrant regions in the circular pool. The mice were gently placed on the water surface while facing the wall of the pool so that they could not see the location of the platform. The tests were performed from the first day to the fourth day, 4 trials per day. In each trial, the total swimming distance and the time required for reaching the platform (swimming time) were measured. […] On the fifth day, the mice were made to swim for 60 seconds with the platform removed from the pool (probe test). In the test, the residence time in Zone-1 where the goal was placed from the first day to the fourth day was measured. […] Error bars show standard error. […] Error bars show standard error.
# APP-SwDI transgenic mice [4] = assay: Survival curve (cumulative survival rate); type: in vivo, mouse; conditions: observation within 500 days after birth; slaughter not included
# Excerpt: 1, 2014 to Nov. 30, 2015, were used to plot and analyze a survival curve of the mice.
# APP-SwDI transgenic mice [5] = assay: Hair loss score (fighting); type: in vivo, mouse; conditions: 13-month-old mice; compared to APP-SwDI mice on normal feed
# Excerpt: Hair loss occurs when mice fight. Thus, the extent of hair loss of each mouse was described in 4 grades of Grade: 0-3 and taken as a hair loss score. Almost normal state is Grade: 0 and hair loss over nearly whole body is Grade: 3. Less than 50% of the whole body surface was classified as Grade: 1 and not less than 50% was classified as Grade: 2.
# The information of mice was concealed and two evaluators independently evaluated the hair loss score. Mean of each evaluation was taken as the hair loss score of the mice.
# Error bars show standard error.
# APP-SwDI transgenic mice [6] = assay: Carbon dioxide gas inhalation test (cerebral blood flow, laser speckle blood flow imager); type: in vivo, mouse; conditions: 12-month-old mice; for cerebral blood flow increase rate after 5% CO2 supply: feed from 4-week-old to 12-month-old, compared to APP-SwDI mice on normal feed; for time course of the cerebral blood flow increase rate after 5% CO2 supply: measured for 5 min after start of 5% CO2; for significance of the difference in cerebral blood flow increase rate versus normal feed group (repeated measurement and variance analysis): versus APP-SwDI mice on normal feed
# Protocol: Analysis was performed by using 12-month-old C57BL/6J mice administered with a normal feed (n=4), APP-SwDI transgenic mice administered with a normal feed (n=10), APP-SwDI transgenic mice administered with a cilostazol-containing feed (n=4), APP-SwDI transgenic mice administered with a taxifolin-containing feed (n=5), and APP-SwDI transgenic mice administered with a feed containing cilostazol and taxifolin (n=7), totaling 30 mice. The feeds containing cilostazol, taxifolin, or cilostazol and taxifolin were administered from 4-week-old to 12-month-old. The concentration of cilostazol in the cilostazol-containing feed was 0.3 wt % and the concentration of taxifolin in the taxifolin-containing feed was 3 wt %. All the APP-SwDI transgenic mice used were homozygous male mice. The mice were anesthetized by intraperitoneal injection of α-chloralose and urethane. Then, endotracheal intubation was performed and the baseline of the cerebral blood flow was measured. Thereafter, 5% CO2 was supplied, and the cerebral blood flow was sequentially measured for 5 min. Relative increase rate was measured from the changes in the cerebral blood flow between the baseline and after 5% CO2 supply. The cerebral blood flow was measured by a laser speckle blood flow imager (OZ-2, OMEGAWAVE, INC.). FIG. 2 is a graph showing mean of relative increase rate of the cerebral blood flow after supply of 5% CO2 in the mice of each group. […] Error bars show standard error.
# APP-SwDI transgenic mice [7] = assay: Y-maze test (alternation response rate); type: in vivo, mouse; conditions: 13-month-old mice, feed from 4-week-old to 13-month-old; test for 8 minutes
# Protocol: The cilostazol-containing feed, the taxifolin-containing feed, and the feed containing cilostazol and taxifolin were administered from 4-week-old to 13-month-old. The concentration of cilostazol in the cilostazol-containing feed was 0.3 wt %, and the concentration of taxifolin in the taxifolin-containing feed was 3 wt %. The concentration of cilostazol and the concentration of taxifolin in the feed containing cilostazol and taxifolin were respectively 0.3 wt % and 3 wt %. All the APP-SwDI transgenic mice used were homozygous male mice. In the Y-maze test, according to the general practice method, the alternation response rate was measured from the results of the test for 8 minutes. […] FIG. 7 is a graph showing an average alternation response rate of the mice of each group. Error bars show standard error.
# [8] = administration of cilostazol; non-patent documents 1, 2; cited from earlier work
# APP-SwDI transgenic mice [9] = conditions: compared to APP-SwDI mice on control feed; non-patent document 3; cited from earlier work
# amyloid beta = conditions: administration of cilostazol; non-patent documents 1, 2; cited from earlier work
# [10] = administration of cilostazol; cilostazol package insert; cited from earlier work
# [11] = mouse, in vivo
# Protocol: as §1
SMILES,presence in the blood (compound or its metabolite) [1],intracerebral Aβ accumulation amount (APP-SwDI transgenic mice [2]),residence time in Zone-1 in the probe test (visuospatial memory) (APP-SwDI transgenic mice [3]),swimming time to reach the platform (visuospatial memory) (APP-SwDI transgenic mice [3]),death of mice (cumulative survival rate) (APP-SwDI transgenic mice [4]),hair loss score (Grade 0-3) (APP-SwDI transgenic mice [5]),cerebral blood flow increase rate after 5% CO2 supply (APP-SwDI transgenic mice [6]),time course of the cerebral blood flow increase rate after 5% CO2 supply (APP-SwDI transgenic mice [6]),significance of the difference in cerebral blood flow increase rate versus normal feed group (repeated measurement and variance analysis) (APP-SwDI transgenic mice [6]),alternation response rate (working memory) (APP-SwDI transgenic mice [7]),reduction of cognitive function [8],alternation response in the Y-maze test (APP-SwDI transgenic mice [9]),intracerebral accumulation of amyloid beta (amyloid beta),"cerebral blood flow in the vertebral artery, internal carotid artery, cerebral cortex, hypothalamus and the like [10]",presence in the blood (compound or its metabolite) [11]
O=C1c2c(O)cc(O)cc2O[C@H](c2ccc(O)c(O)c2)[C@H]1O [taxifolin],detected in the blood,significant decrease,the same results as in the C57BL/6J mouse,the same results as in the C57BL/6J mouse,died clearly more than other mice,clearly severe hair loss,increased,rapidly increased after 5% CO2 supply,a significant difference was absent,significant improvement was not observed,,,,,
"O=C1CCc2cc(OCCCCc3nnnn3C3CCCCC3)ccc2N1 [cilostazol, 6-[4-(1-cyclohexyl-1H-tetrazol-5-yl)butoxy]-3,4-dihydrocarbostyril]",,significant decrease,visuospatial memory disorder improving effect of cilostazol was considered to be limited,visuospatial memory disorder improving effect of cilostazol was considered to be limited,,,increased,increased after a certain period of time after 5% CO2 supply,a significant difference was absent,,suppressed,increased,suppressed,increases,detected in the blood
